Data: patent US11358863B2, “Method and composition of humidity-controlled generation of chlorine dioxide in polymers and superabsorbent hydrogels” (priority 2017, dated 2022)

Key:
Type in all cases: cell-based
[1] = tested on: mold on cotton-based parachute sleeve; experiment: Mold growth on moldy cotton parachute sleeve sample on Potato Dextrose Agar after ClO2 treatment; details: 10 mL of 100 ppm ClO2 solution, mixed intermittently over 20 minutes, quenched; stored at 30° C. for 5 days
Method: Dry reagents of HMS and chlorite ion were added to distilled de-ionized water to produce chlorine dioxide. A cotton-based parachute sleeve that is characteristically used to hold and release parachutes during jumps and to store folded parachutes after jumps was chosen for use. […] Approximately 1×1 in^2 was cut from a parachute sleeve and placed using sterile forceps into a Petri dish of sterile Potato Dextrose Agar (PDA) with a few drops of sterile water. […] A 1×1 in^2 sample was removed from the moldy dish using a sterile technique and placed in a new sterile Petri dish of PDA with sterile water. A second 1×1 in^2 sample was placed in a plastic pouch with 10 mL of 100 ppm ClO2 solution and mixed in a paddle-blender for 2 minutes intermittently over a 20 minute period. At 20 min, reductant was added to quench any excess ClO2, and the sample was placed on a fresh Petri dish of PDA. Both samples were stored at 30° C. for 5 days.

[2] = tested on: spores of Bacillus cereus; experiment: Microbiological validation of aqueous ClO2 using Bacillus cereus spores, serial dilutions and plate-counting on Nutrient Agar; details: dilutions 1-10^-6, NA plates 18 hours at 37° C.
[3] = tested on: Geobacillus stearothermophilus 7953 spores; experiment: Clamshell package with chlorite/HMS absorbent pad in humid desiccator: autoclave sterility test strip; details: gaseous ClO2 about 25-50 ppm after 24 hours, 89% RH, 35° C.
Source text: (§1) We tested a clamshell package made of plastic (commonly PLA or polyethylene terephthalate (PET)), typical of the packaging used to contain fresh produce or berries as sold in supermarkets, convenience stores, and other grocery stores. These clamshell packages have vent holes that allow the free-flow exchange of gases between the interior of the package and its surrounding environment.
A beaker with two ClO2 indicator test strips (high range, 0-500 ppm), one Geobacillus stearothermophilus 7953 autoclave sterility test strip and one Bacillus atrophaeus ethylene oxide gas sterility test strip, was placed inside the clamshell package. A piece of blue material comprising non-woven textiles and superabsorbent hydrogel, characteristic of a common disposable diaper, was cut into a 3×1 inch rectangle. Dry sodium chlorite and dry HMS were placed on spatially separate regions of the material. The blue absorbent pad was sprayed with a small amount of water, and then folded in half. The entire clamshell package (containing the indicator strips, microbial test strips, and blue pad with reactive reagents) was placed inside a […] The entire desiccator assembly, containing the salt solution in the bottom and the clamshell package above the solution on a perforated platform, was placed inside an incubator at 35° C., which re-equilibrated and increased RH to 89%. […]

[4] = tested on: Bacillus atrophaeus spores; experiment: Clamshell package with chlorite/HMS absorbent pad in humid desiccator: ethylene oxide gas sterility test strip; details: gaseous ClO2 about 25-50 ppm after 24 hours, 89% RH, 35° C.
Source text: as §1
A beaker with two ClO2 indicator test strips (high range, 0-500 ppm), one Geobacillus stearothermophilus 7953 autoclave sterility test strip and one Bacillus atrophaeus ethylene oxide gas sterility test strip, was placed inside the clamshell package. A piece of blue material comprising non-woven textiles and superabsorbent hydrogel, characteristic of a common disposable diaper, was cut into a 3×1 inch rectangle. Dry sodium chlorite and dry HMS were placed on spatially separate regions of the material. The blue absorbent pad was sprayed with a small amount of water, and then folded in half. The entire clamshell package (containing the indicator strips, microbial test strips, and blue pad with reactive reagents) was placed inside a desiccator charged with […] The entire desiccator assembly, containing the salt solution in the bottom and the clamshell package above the solution on a perforated platform, was placed inside an incubator at 35° C., which re-equilibrated and increased RH to 89%. […]

Compound: [O][Cl+][O-] [ClO2, chlorine dioxide]
- mold growth on cotton sleeve sample and PDA [1]: no signs of mold growth
- growth of B. cereus from inoculated protective garment fabric ([2]; 10 microliter inoculum on 1×1 in^2 fabric, 100 ppm ClO2 solution, paddle-blender 15 min, quenched): no discernible growth
- colonies on NA plates (plate-counts) ([2]; B. cereus spore inoculum in 10 mL of 100 ppm aqueous ClO2 solution, paddle-stomacher 15 min, quenched with reductant): no discernible colonies
- microbial growth of G. stearothermophilus indicator test strip [3]: negative for microbial growth
- microbial growth of B. atrophaeus indicator test strip [4]: negative for microbial growth
